≈ marks a conversion by molar mass, not a printed value. Where two headings read alike, the source gives them in different places.

Consider 6 compounds from US11021529B2, “Antimicrobial constructs and uses thereof” (priority 2017, dated 2021).

Holding throughout (type): cell-based
Assay [1] relates to P. aeruginosa strain PA14. As to the kind of experiment: MIC in wild-type P. aeruginosa strain PA14 (Table 3). The following applies: Pseudomonas aeruginosa.
Another assay concerns P. aeruginosa strain Z61. The assay can be described thus: MIC in hyperpermeable P. aeruginosa strain Z61 (Table 3). Conditions: Pseudomonas aeruginosa.
In assay [2] the test system is P. aeruginosa strain PA01. The assay can be described thus: MIC in wild-type P. aeruginosa strain PA01 (Table 3). Conditions: Pseudomonas aeruginosa.
For assay [3], the system named is P. aeruginosa. The assay can be described thus: Checkerboard assays (fractional inhibitory concentration indices) with WLBU2 potentiator. Conditions: drug combined with WLBU2 potentiator (W2-grafted dextran).
Excerpt: In some embodiments, checkerboard assays can be used to determine if two antimicrobial agents have synergy, additive, or antagonistic effects when dosed together. Checkboard assays determine the interaction and potency of two test articles when used concurrently. Using Lorian methodology, the effect on potency of the combination of antimicrobials in comparison to their individual activities, represented as the Fractional Inhibitory Concentration (FIC) index value. To quantify the interactions between the antimicrobials being tested, the FIC index (the combination of antimicrobials that produced the greatest change from the individual antimicrobial's MIC) value is calculated for each strain and antimicrobial combination: (A/MICA)+(B/MICB)=FICA+FICB=FIC Index, where A and B are the MIC of each antimicrobial in combination (in a single well), and MICA and MICB are the MIC of each antimicrobial individually.
Assay [4] deals with P. aeruginosa strain PA01. As to the kind of experiment: Growth (MIC) assay in P. aeruginosa strain PA01. Conditions: peptide concentration range 0-5 μM. As to the method:
The minimal inhibitory concentrations (MIC) were measured in P. aeruginosa and cell viability in mammalian cells at a peptide concentration range between 0-5 μM. Toxicity was evaluated in NIH 3T3 mouse fibroblasts and Neuro-2a neuroblastoma. To negatively select against tandem peptides that may cause red blood lysis when administered in animals, the peptides were also screened in a hemolysis assay. In the range of concentrations tested, no membrane-active peptide had inhibitory activity against bacteria when not in tandem with dKK (FIG. 2), supporting the rationale of the tandem peptide architecture. At these concentrations, dKK alone also had no activity against P. aeruginosa (FIG. 2). Since it is advantageous to identify antibacterial agents which have narrow-spectrum activity, antibacterial efficacy against other gram-negative bacterial species (E. coli) and a gram-positive bacterial species (S. aureus; FIG. 1B) was also assessed. The best performing tandem peptide was lactoferrin-dKK (LACT-dKK). Lactoferrin peptide ([…], SEQ ID NO: 1) is from a protein in the transferrin family with known membrane interactions with bacteria. […]
For each experiment, P. aeruginosa strain PA01 was started from a frozen glycerol stock and cultured overnight. […] The number of colony forming units (CFU) per mL was determined by titering cultures with known absorbance values. […]

Assay [5] relates to P. aeruginosa. As to the kind of experiment: Super-resolution microscopy of membrane association and permeabilization. Conditions: fluorescently labeled peptide or potentiator. The text has this: In order to identify peptides which would improve the penetration of small molecules into bacteria library of 30 peptide-linezolid conjugates was synthesized using antimicrobial peptides curated from literature. Linezolid is a small molecule that is normally unable to kill gram-negative bacteria due to its inability to cross the membrane. The peptide-linezolid library was screened in a growth inhibition assay in P. aeruginosa. […] WLBU2 is part of a family of helical cationic peptides that were designed to specifically kill P. aeruginosa. Other members of this peptide family, WLBU1 and LBU2, were synthesized in tandem with P. aeruginosa targeting peptides (P9b and EKR) and conjugated to linezolid. These peptide-drug conjugates were evaluated for their ability to inhibit P. aeruginosa and cross validated for mammalian cell toxicity.
To visualize membrane permeabilization of WLBU2, P. aeruginosa was incubated with Alexa Fluor 488-labeld WLBU2 potentiator for 15 minutes and subsequently washed 2 times with phosphate buffer solution to remove unbound potentiator. Bacteria were then stained with a membrane dye.

The MIC is the smallest concentration in the dilution series that meets the test's criterion for growth inhibition. On to `O=C(O)c1cn(C2CC2)c2cc(N3CCNCC3)c(F)cc2c1=O` [Ciprofloxacin], for which the minimum inhibitory concentration (MIC) in assay [1] (P. aeruginosa strain PA14, read-out: MIC) is 0.5 µg/mL (≈ 1.51 µM); in the assay with P. aeruginosa strain Z61, below 0.25 µg/mL; in assay [2] (P. aeruginosa strain PA01, read-out: MIC) it was 2 µg/mL (≈ 6.04 µM). On to `CC(=O)NC[C@H]1CN(c2ccc(N3CCOCC3)c(F)c2)C(=O)O1` [Linezolid], for which the results for the MIC (in assay [1] (PA14); against P. aeruginosa strain Z61; in assay [2] (PA01)) were above 128 µg/mL, 8 µg/mL (≈ 23.7 µM) and above 128 µg/mL, respectively. In the case of `CO[C@@H]1[C@@H](OC(N)=O)[C@@H](O)[C@H](Oc2ccc3c(O)c(NC(=O)c4ccc(O)c(CC=C(C)C)c4)c(=O)oc3c2C)OC1(C)C` [novobiocin], the “fractional inhibitory concentration indices (FICIs), interaction with WLBU2 potentiator” value with P. aeruginosa [3] is on record as “synergy”. Same read-out and setting: with `C=C[C@]1(C)C[C@@H](OC(=O)CS[C@@H]2C[C@H]3CC[C@@H](C2)N3C)[C@]2(C)[C@H](C)CC[C@]3(CCC(=O)[C@H]32)[C@@H](C)[C@@H]1O` [retapamulin] the entry was “synergy”. In the case of “D(KLAKLAK)2 (KLAKLAKKLAKLAK; D-amino acids; Synthetic - antimicrobial peptide comprised of D-amino acids) [dKK]”, the “inhibitory activity against bacteria / P. aeruginosa” value in assay [4] is “no activity”. As to “RRWVRRVRRWVRRVVRVVRRWVRR (Synthetic WLBU2)”, the “localization in P. aeruginosa (super-resolution microscopy)” value with P. aeruginosa [5] is “able to associate with the membrane and localize to the cytosol”.
